From PMC11106541, “Library screening identifies commercial drugs as potential structure correctors of abnormal apolipoprotein A-I” (Journal of Lipid Research, 2024)
pEC50: −log10 of the molar value. Like-named read-outs stand apart in the source and are kept apart here.

Assays:
apoA-I[L178P] [1] = biological target: T1, apoA-I[L178P] (Homo sapiens, UniProt P02647, L202P); experiment: ITC (also Tm shift by CD thermal denaturation, EC50 […]; TSA; ANS); type: binding
T1 construct: gene APOA1; recombinant lipid-free apoA-I (243 residues) expressed in E. coli, thioredoxin/His tag removed with 3C protease
T1 sequence (P02647 25-267 L202P): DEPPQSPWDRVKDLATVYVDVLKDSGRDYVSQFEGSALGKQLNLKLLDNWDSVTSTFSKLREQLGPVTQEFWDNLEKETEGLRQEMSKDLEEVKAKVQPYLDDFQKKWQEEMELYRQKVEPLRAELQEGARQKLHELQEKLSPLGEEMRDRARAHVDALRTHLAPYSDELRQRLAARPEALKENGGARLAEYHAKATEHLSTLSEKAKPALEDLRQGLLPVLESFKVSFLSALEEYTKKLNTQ

apoA-I[L178P] [2] = biological target: T1, apoA-I[L178P]; experiment: as above; type: binding; remark: listed apart in the source

| pEC50 (apoA-I[L178P] [1]) | SMILES | pEC50 (apoA-I[L178P] [2]) |
| --- | --- | --- |
| 3.40 | CC(C)c1c(C(=O)Nc2ccccc2)c(-c2ccccc2)c(-c2ccc(F)cc2)n1CC[C@@H](O)C[C@@H](O)CC(=O)O [C8, atorvastatin] | – |
| – | C=C(c1ccc(C(=O)O)cc1)c1cc2c(cc1C)C(C)(C)CCC2(C)C [C9-p1, bexarotene] | 4.01 |
